Experimental data published in PMC12040169 (PLOS Biology, 2025).

Test: in vitro
Settings: human, hela cells, % viability

CSCCN1CCC(Oc2nccnc2OCC2COc3ccccc3O2)CC1 (stereo not drawn) [CBK082996T]
viability at 28.5 h, 10 µM: 92.7%

c1ccc2c(c1)OCC(COc1nccnc1OC1CCN(CC3CC3)CC1)O2 (stereo not drawn) [CBK083001T]
viability at 28.5 h, 10 µM: 96.5%

Fc1ccc(Oc2nccnc2N2CCN(Cc3ccc(Cl)c(Cl)c3)CC2)cc1 [CBK083007T]
viability at 28.5 h, 10 µM: 92.3%

Fc1ccc(Oc2nccnc2N2CCN(Cc3ccccc3F)CC2)cc1 [CBK083009T]
viability at 28.5 h, 10 µM: 91.8%

Fc1ccc(Oc2nccnc2N2CCN(Cc3ccc(Cl)cc3)CC2)cc1 [CBK083010T]
viability at 28.5 h, 10 µM: 80.4%

O=[N+]([O-])c1ccc(CN2CCN(c3nccnc3Oc3ccc(F)cc3)CC2)cc1 [CBK083015T]
viability at 28.5 h, 10 µM: 92.2%

NC(=O)CN1CCN(c2nccnc2Oc2ccc(F)cc2)CC1 [CBK083018T]
viability at 28.5 h, 10 µM: 98.3%

CCN(CC)C(=O)CN1CCN(c2nccnc2Oc2ccc(F)cc2)CC1 [CBK083020T]
viability at 28.5 h, 10 µM: 87.9%

O=c1[nH]c2ccccc2n1CCCN1CCN(c2nccnc2Oc2ccc(F)cc2)CC1 [CBK083027T]
viability at 28.5 h, 10 µM: 88.2%

CSCCN1CCN(c2nccnc2Oc2ccc(F)cc2)CC1 [CBK083028T]
viability at 28.5 h, 10 µM: 93.2%

Fc1ccc(Oc2nccnc2N2CCN(CC3CC3)CC2)cc1 [CBK083033T]
viability at 28.5 h, 10 µM: 91.8%

COc1ccc(Oc2nccnc2N2CCN(Cc3ccc(Cl)cc3)CC2)cc1OC [CBK083041T]
viability at 28.5 h, 10 µM: 87.3%

COc1ccc(Oc2nccnc2N2CCN(Cc3ccc(C(F)(F)F)cc3)CC2)cc1OC [CBK083044T]
viability at 28.5 h, 10 µM: 102%

COc1ccc(Oc2nccnc2N2CCN(Cc3ccc([N+](=O)[O-])cc3)CC2)cc1OC [CBK083046T]
viability at 28.5 h, 10 µM: 86.4%

COc1ccc(Oc2nccnc2N2CCN(Cc3ccc4c(c3)OCO4)CC2)cc1OC [CBK083048T]
viability at 28.5 h, 10 µM: 106%

COc1ccc(Oc2nccnc2N2CCN(CC3CCCCC3)CC2)cc1OC [CBK083064T]
viability at 28.5 h, 10 µM: 98.6%

COc1ccc(Oc2nccnc2N2CCN(CCc3ccccn3)CC2)cc1OC [CBK083067T]
viability at 28.5 h, 10 µM: 93.2%

Clc1ccc(COc2nccnc2N2CCN(Cc3ccc4c(c3)OCO4)CC2)cc1Cl [CBK083078T]
viability at 28.5 h, 10 µM: 109%

NC(=O)CN1CCN(c2nccnc2OCc2ccc(Cl)c(Cl)c2)CC1 [CBK083079T]
viability at 28.5 h, 10 µM: 111%

N#CCCCN1CCN(c2nccnc2OCc2ccc(Cl)c(Cl)c2)CC1 [CBK083086T]
viability at 28.5 h, 10 µM: 94%

O=[N+]([O-])c1ccc(CN2CCC(Oc3nccnc3OCc3ccc(Cl)c(Cl)c3)CC2)cc1 [CBK083107T]
viability at 28.5 h, 10 µM: 104%

NC(=O)CN1CCC(Oc2nccnc2OCc2ccc(Cl)c(Cl)c2)CC1 [CBK083110]
viability at 28.5 h, 10 µM: 104%

Clc1ccc(COc2nccnc2OC2CCN(CC3CC3)CC2)cc1Cl [CBK083123T]
viability at 28.5 h, 10 µM: 92.4%

Clc1ccc(CN2CCN(c3nccnc3OCc3cccnc3)CC2)cc1Cl [CBK083128T]
viability at 28.5 h, 10 µM: 105%

Clc1ccc(CN2CCN(c3nccnc3OCc3cccnc3)CC2)cc1 [CBK083130T]
viability at 28.5 h, 10 µM: 99.6%

FC(F)(F)c1ccc(CN2CCN(c3nccnc3OCc3cccnc3)CC2)cc1 [CBK083133T]
viability at 28.5 h, 10 µM: 101%

CCN(CC)C(=O)CN1CCN(c2nccnc2OCc2cccnc2)CC1 [CBK083140]
viability at 28.5 h, 10 µM: 100%

c1cncc(COc2nccnc2N2CCN(CCN3CCOCC3)CC2)c1 [CBK083141]
viability at 28.5 h, 10 µM: 104%

N#CCCCN1CCN(c2nccnc2OCc2cccnc2)CC1 [CBK083144]
viability at 28.5 h, 10 µM: 96.3%

Fc1ccccc1CN1CCC(Oc2nccnc2OCc2cccnc2)CC1 [CBK083157T]
viability at 28.5 h, 10 µM: 91.8%

c1cncc(COc2nccnc2OC2CCN(Cc3cccnc3)CC2)c1 [CBK083158]
viability at 28.5 h, 10 µM: 108%

CCN(CC)c1ccc(C(=O)CN2CCC(Oc3nccnc3OCc3cccnc3)CC2)cc1 [CBK083167T]
viability at 28.5 h, 10 µM: 112%

N#CCCCN1CCC(Oc2nccnc2OCc2cccnc2)CC1 [CBK083171]
viability at 28.5 h, 10 µM: 85.9%

COc1ccc(CCN2CCC(Oc3nccnc3OCc3cccnc3)CC2)cc1OC [CBK083179T]
viability at 28.5 h, 10 µM: 99%

c1cncc(COc2nccnc2OC2CCN(CCOc3cccnc3)CC2)c1 [CBK083181]
viability at 28.5 h, 10 µM: 92.1%

CCC1CCCCN1C(=O)c1ccccc1C(=O)OC (stereo not drawn) [CBK083196]
viability at 28.5 h, 10 µM: 92.4%

Cc1ccccc1C(NC(=O)C1CCN(C(=O)OCc2ccccc2)CC1)c1ccc(=O)[nH]c1 (stereo not drawn) [CBK083200]
viability at 28.5 h, 10 µM: 85.7%

FC(F)(F)c1ccc(CN2CCCN(c3ccnc(OCC4COc5ccccc5O4)n3)CC2)cc1 (stereo not drawn) [CBK083233T]
viability at 28.5 h, 10 µM: 93%

NC(=O)CN1CCCN(c2ccnc(OCC3COc4ccccc4O3)n2)CC1 (stereo not drawn) [CBK083236T]
viability at 28.5 h, 10 µM: 91.4%

COc1ccc(CN2CCCN(c3cc(OCC4COc5ccccc5O4)ncn3)CC2)cc1 (stereo not drawn) [CBK083255T]
viability at 28.5 h, 10 µM: 88%

CCN(CC)C(=O)CN1CCCN(c2cc(OCCN3C(=O)CCC3=O)ncn2)CC1 [CBK083266T]
viability at 28.5 h, 10 µM: 102%

FC(F)(F)c1ccc(CN2CCCN(c3cc(OC4CCCCC4)ncn3)CC2)cc1 [CBK083277T]
viability at 28.5 h, 10 µM: 112%

COc1ccc(CN2CCCN(c3cc(OC4CCCCC4)ncn3)CC2)cc1 [CBK083278T]
viability at 28.5 h, 10 µM: 107%

Cc1cccc(C)c1NC(=O)CN1CCCN(c2cc(OCCN3C(=O)CCC3=O)ncn2)CC1 [CBK083313T]
viability at 28.5 h, 10 µM: 97.9%

Cc1cc(COc2cc(N3CCCN(Cc4ccc5c(c4)OCO5)CC3)ncn2)no1 [CBK083335T]
viability at 28.5 h, 10 µM: 95.7%

O=C1CCc2c(Cc3c(Cl)cccc3Cl)c(O)nn21 [CBK083470]
viability at 28.5 h, 10 µM: 91.3%

Brc1cncc2c1ccn2CCN1CCOCC1 [CBK083479]
viability at 28.5 h, 10 µM: 87.1%

COc1ccc(C(=O)CCCN2CC3CCC(NC(=O)Nc4ccc(F)c(F)c4)CC3C2)cc1 (stereo not drawn) [CBK083514T]
viability at 28.5 h, 10 µM: 109%

COc1ccc(C(=O)CCCN2CCc3c([nH]c4ccc(OC)cc34)C2)cc1 [CBK083515T]
viability at 28.5 h, 10 µM: 101%

CC(C)(C)OC(=O)N1CCC2(CC1)NC(=O)c1cc(-c3cccnc3)ccc1O2 [CBK083517]
viability at 28.5 h, 10 µM: 94.1%

Cc1ccc(C(=O)N2CCC(CO)CC2)cc1C [CBK083532]
viability at 28.5 h, 10 µM: 93.8%

COC(=O)N1CC2(CCCCC2NCCC(F)(F)F)c2ccccc21 (stereo not drawn) [CBK083539T]
viability at 28.5 h, 10 µM: 90%

COC(=O)N1CC2(CCCCC2NCC2CCCO2)c2ccccc21 (stereo not drawn) [CBK083541T]
viability at 28.5 h, 10 µM: 95.2%

CC1=NN(C(=O)C2CC2)C(=O)C1Cc1ccc(F)cc1 (stereo not drawn) [CBK083561]
viability at 28.5 h, 10 µM: 89.9%

Nc1ccc(C(=O)Oc2ccc(Oc3ccccc3)cc2)cc1 [CBK083570]
viability at 28.5 h, 10 µM: 90.5%

COc1ccc(OC(=O)c2ccc3nonc3c2)cc1 [CBK083571]
viability at 28.5 h, 10 µM: 97.9%

CCOc1ccc(OC(=O)c2cccc(C)c2)cc1 [CBK083575]
viability at 28.5 h, 10 µM: 101%

COc1ccc(C(NC(=O)NNC(=O)Cc2ccc(Cl)cc2)c2ccccc2C)cn1 (stereo not drawn) [CBK083660]
viability at 28.5 h, 10 µM: 96.1%

Cc1ccc(C(=O)NC2CCCCCC2)cc1C [CBK083665]
viability at 28.5 h, 10 µM: 86%

Cc1ccc(C(=O)N(C)C2CCCCC2)cc1C [CBK083667]
viability at 28.5 h, 10 µM: 137%

CC(C)(C)OC(=O)N1CCC2(CC1)NC(=O)c1cc(-c3cccc4ncccc34)ccc1O2 [CBK083674]
viability at 28.5 h, 10 µM: 109%

Nc1c(-c2cc(F)cc(F)c2)cnc2ncccc12 [CBK083677]
viability at 28.5 h, 10 µM: 111%

CSc1ccc(-c2cnc3ncccc3c2N)cc1 [CBK083680]
viability at 28.5 h, 10 µM: 101%
